Experimental data taken from article PMC9090415, “Discovery of small molecule inhibitors of Plasmodium falciparum apicoplast DNA polymerase” (Journal of Enzyme Inhibition and Medicinal Chemistry, 2022).

Target: P. falciparum apicoplast DNA polymerase (Pf-apPOL) (Plasmodium falciparum, UniProt Q8ILY1)
Experiment: Fluorescence-based high-throughput DNA polymerase assay (molecular beacon), primary screen and dose-response;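 for % inhibition ApPOL 90': test concentration in µM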;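 for % inhibition apPOL 180': test concentration in µM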
Assay type: biochemical
Outline: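 Single-point screening used 10 µM compound with 20 nM polymerase, 20 nM hairpin substrate and 6 µM dNTPs for 90 min at 25 °C. Confirmatory titrations (2.5–80 µM) followed fluorescence at three times, and IC50 was derived from a fit including a cooperativity term n.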

[1] = supplemental file 2, sheet IC50 nontoxic compounds; Pf-apPOL

P. falciparum apicoplast DNA polymerase (Pf-apPOL), sequence (Q8ILY1 entry or part of it): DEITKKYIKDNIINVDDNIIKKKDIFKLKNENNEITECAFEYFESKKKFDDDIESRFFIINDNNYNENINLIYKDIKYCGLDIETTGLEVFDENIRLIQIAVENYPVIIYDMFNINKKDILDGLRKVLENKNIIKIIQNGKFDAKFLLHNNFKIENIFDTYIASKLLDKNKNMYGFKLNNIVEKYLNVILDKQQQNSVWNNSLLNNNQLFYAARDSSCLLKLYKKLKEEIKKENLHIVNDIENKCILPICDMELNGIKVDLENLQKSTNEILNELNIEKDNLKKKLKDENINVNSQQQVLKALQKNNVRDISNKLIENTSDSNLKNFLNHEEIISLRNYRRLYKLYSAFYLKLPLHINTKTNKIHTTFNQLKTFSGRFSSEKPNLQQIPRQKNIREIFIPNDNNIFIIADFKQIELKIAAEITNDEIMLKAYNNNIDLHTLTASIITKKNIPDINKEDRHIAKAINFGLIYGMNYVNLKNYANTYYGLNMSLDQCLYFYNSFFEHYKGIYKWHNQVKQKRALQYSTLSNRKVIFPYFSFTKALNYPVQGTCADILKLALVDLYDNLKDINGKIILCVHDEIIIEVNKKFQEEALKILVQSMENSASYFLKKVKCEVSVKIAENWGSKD

O=C1NN(c2ccc(Cl)c(Cl)c2)C(=O)/C1=C/c1ccc(-c2ccc3c(c2)C(=O)OC3)o1 [Molecule 90, O=C1NN(C(=O)/C/1=C/c1ccc(o1)c1ccc2c(c1)C(=O)OC2)c1ccc(c(c1)Cl)Cl]
DNA Pol ('DNA Pol' of the 186 hits list (screen value); 90 min, 10 µM): 51 | % inhibition Apo pol 10' (DRC-1; 10'; conc 2.5): 36.4105% | % inhibition Apo pol 10' (DRC-1; 10'; conc 5): 68.8597% | % inhibition Apo pol 10' (DRC-1; 10'; conc 10): 88.9603% | % inhibition Apo pol 10' (DRC-1; 10'; conc 20): 93.857% | % inhibition Apo pol 10' (DRC-1; 10'; conc 40): 90.5867% | % inhibition Apo pol 10' (DRC-1; 10'; conc 80): 96.7456% | % inhibition Apol 90' (DRC-1; 90'; conc 2.5): 24.0232% | % inhibition Apol 90' (DRC-1; 90'; conc 5): 57.3373% | % inhibition Apol 90' (DRC-1; 90'; conc 10): 84.2476% | % inhibition Apol 90' (DRC-1; 90'; conc 20): 92.6423% | % inhibition Apol 90' (DRC-1; 90'; conc 40): 85.5188% | % inhibition Apol 90' (DRC-1; 90'; conc 80): 95.1265% | % inhibition apPOL 180' (DRC-1; 180'; conc 2.5): 13.8146% | % inhibition apPOL 180' (DRC-1; 180'; conc 5): 43.9311% | % inhibition apPOL 180' (DRC-1; 180'; conc 10): 78.9656% | % inhibition apPOL 180' (DRC-1; 180'; conc 20): 91.6394% | % inhibition apPOL 180' (DRC-1; 180'; conc 40): 79.8129% | % inhibition apPOL 180' (DRC-1; 180'; conc 80): 94.9011% | % inhibition Apo pol 5' (DRC-2; 5'; conc 2.5): 31% | % inhibition Apo pol 5' (DRC-2; 5'; conc 5): 10% | % inhibition Apo pol 5' (DRC-2; 5'; conc 10): 34% | % inhibition Apo pol 5' (DRC-2; 5'; conc 20): 38% | % inhibition Apo pol 5' (DRC-2; 5'; conc 40): 61% | % inhibition Apo pol 5' (DRC-2; 5'; conc 80): 63% | % inhibition Apo pol 5' (DRC-2; 5'; concentration 5): 10% | % inhibition Apo pol 5' (DRC-2; 5'; concentration 10): 34% | % inhibition Apo pol 5' (DRC-2; 5'; concentration 80): 63% | % inhibition Apol 40' (DRC-2; 40'; conc 2.5): 33% | % inhibition Apol 40' (DRC-2; 40'; conc 5): 10% | % inhibition Apol 40' (DRC-2; 40'; conc 10): 37% | % inhibition Apol 40' (DRC-2; 40'; conc 20): 42% | % inhibition Apol 40' (DRC-2; 40'; conc 40): 68% | % inhibition Apol 40' (DRC-2; 40'; conc 80): 79% | % inhibition Apol 40' (DRC-2; 40'; concentration 5): 10% | % inhibition ApPOL 90' (DRC-2; 90'; conc 2.5): 30% | % inhibition ApPOL 90' (DRC-2; 90'; conc 5): 9% | % inhibition ApPOL 90' (DRC-2; 90'; conc 10): 35% | % inhibition ApPOL 90' (DRC-2; 90'; conc 20): 40% | % inhibition ApPOL 90' (DRC-2; 90'; conc 40): 67% | % inhibition ApPOL 90' (DRC-2; 90'; conc 80): 82% | % inhibition apPOL 180' (DRC-2; 180'; conc 2.5): 24% | % inhibition apPOL 180' (DRC-2; 180'; conc 5): 6% | % inhibition apPOL 180' (DRC-2; 180'; conc 10): 29% | % inhibition apPOL 180' (DRC-2; 180'; conc 20): 34% | % inhibition apPOL 180' (DRC-2; 180'; conc 40): 63% | % inhibition apPOL 180' (DRC-2; 180'; conc 80): 83% | % inhibition apPOL 180' (DRC-2; 180'; concentration 20): 34% | % inhibition apPOL 180' (DRC-2; 180'; concentration 40): 63% | DNA Pol (primary screen value, "DNA Pol"; 90 min, 10 µM): 51

COc1ccc(C(=O)Nc2cccc(-c3nc4ncccc4o3)c2)cc1[N+](=O)[O-] [KU0063313]
DNA Pol (186 hits, value of the hit list (primary screen); unit not given; 90 min, 10 µM): 31 | % inhibition Apo pol 10' (DRC-1; 10'; concentration 2.5): 4.335% | % inhibition Apo pol 10' (DRC-1; 10'; concentration 5): 2.852% | % inhibition Apo pol 10' (DRC-1; 10'; concentration 10): 35.1619% | % inhibition Apo pol 10' (DRC-1; 10'; concentration 20): 59.4699% | % inhibition Apo pol 10' (DRC-1; 10'; concentration 40): 4.461% | % inhibition Apo pol 10' (DRC-1; 10'; concentration 80): 70.0671% | % inhibition Apol 90' (DRC-1; 90'; concentration 2.5): 2.478% | % inhibition Apol 90' (DRC-1; 90'; concentration 5): 4.0361% | % inhibition Apol 90' (DRC-1; 90'; concentration 10): 26.4412% | % inhibition Apol 90' (DRC-1; 90'; concentration 20): 41.4228% | % inhibition Apol 90' (DRC-1; 90'; concentration 40): 2.829% | % inhibition Apol 90' (DRC-1; 90'; concentration 80): 43.7849% | % inhibition apPOL 180' (DRC-1; 180'; concentration 2.5): -1.663% | % inhibition apPOL 180' (DRC-1; 180'; concentration 5): 2.317% | % inhibition apPOL 180' (DRC-1; 180'; concentration 10): 20.5277% | % inhibition apPOL 180' (DRC-1; 180'; concentration 20): 37.6573% | % inhibition apPOL 180' (DRC-1; 180'; concentration 40): 6.705% | % inhibition apPOL 180' (DRC-1; 180'; concentration 80): 38.9716% | % inhibition Apo pol 5' (DRC-2, 5', concentration 2.5): 0.145% | % inhibition Apo pol 5' (DRC-2, 5', concentration 5): 8% | % inhibition Apo pol 5' (DRC-2, 5', concentration 10): 16% | % inhibition Apo pol 5' (DRC-2, 5', concentration 20): 4% | % inhibition Apo pol 5' (DRC-2, 5', concentration 40): 29% | % inhibition Apo pol 5' (DRC-2, 5', concentration 80): 15% | % inhibition Apol 40' (DRC-2, 40', concentration 2.5): 0.929% | % inhibition Apol 40' (DRC-2, 40', concentration 5): 10% | % inhibition Apol 40' (DRC-2, 40', concentration 10): 18% | % inhibition Apol 40' (DRC-2, 40', concentration 20): 1.88% | % inhibition Apol 40' (DRC-2, 40', concentration 40): 61% | % inhibition Apol 40' (DRC-2, 40', concentration 80): 45% | % inhibition ApPOL 90' (DRC-2, 90', concentration 2.5): 0.838% | % inhibition ApPOL 90' (DRC-2, 90', concentration 5): 10% | % inhibition ApPOL 90' (DRC-2, 90', concentration 10): 15% | % inhibition ApPOL 90' (DRC-2, 90', concentration 20): -0.691% | % inhibition ApPOL 90' (DRC-2, 90', concentration 40): 68% | % inhibition ApPOL 90' (DRC-2, 90', concentration 80): 58% | % inhibition apPOL 180' (DRC-2, 180', concentration 2.5): -5% | % inhibition apPOL 180' (DRC-2, 180', concentration 5): 2.55% | % inhibition apPOL 180' (DRC-2, 180', concentration 10): 8% | % inhibition apPOL 180' (DRC-2, 180', concentration 20): -8% | % inhibition apPOL 180' (DRC-2, 180', concentration 40): 73% | % inhibition apPOL 180' (DRC-2, 180', concentration 80): 62% | % inhibition Apo pol 5' (DRC-2; 5'; concentration 5): 8% | % inhibition Apo pol 5' (DRC-2; 5'; concentration 80): 15% | % inhibition Apol 40' (DRC-2; 40'; concentration 5): 10% | % inhibition ApPOL 90' (DRC-2; 90'; concentration 5): 10% | % inhibition ApPOL 90' (DRC-2; 90'; concentration 10): 15% | % inhibition apPOL 180' (DRC-2; 180'; concentration 10): 8% | DNA Pol (primary screen value, 'DNA Pol' only; 90 min, 10 µM): 31

Cc1ccsc1Cn1c(C)ccc1C [Molecule 70]
IC50 [1]: 31.6 µM

Cc1cc(C)c2c(O)nc(SCC(=O)c3ccc(O)c(O)c3)nc2n1 [Molecule 88, Cc1cc(C)c2c(n1)nc(nc2O)SCC(=O)c1ccc(c(c1)O)O]
% inhibition Apo pol 10' (DRC-1; 10'; concentration 2.5): 66.1048% | % inhibition Apo pol 10' (DRC-1; 10'; concentration 5): 84.19% | % inhibition Apo pol 10' (DRC-1; 10'; concentration 10): 90.4679% | % inhibition Apo pol 10' (DRC-1; 10'; concentration 20): 96.9488% | % inhibition Apo pol 10' (DRC-1; 10'; concentration 40): 98.8856% | % inhibition Apo pol 10' (DRC-1; 10'; concentration 80): 98.1462% | % inhibition Apol 90' (DRC-1; 90'; concentration 2.5): 42.8406% | % inhibition Apol 90' (DRC-1; 90'; concentration 5): 64.0677% | % inhibition Apol 90' (DRC-1; 90'; concentration 10): 76.3822% | % inhibition Apol 90' (DRC-1; 90'; concentration 20): 90.5503% | % inhibition Apol 90' (DRC-1; 90'; concentration 40): 93.4235% | % inhibition Apol 90' (DRC-1; 90'; concentration 80): 90.6466% | % inhibition apPOL 180' (DRC-1; 180'; concentration 2.5): 28.0012% | % inhibition apPOL 180' (DRC-1; 180'; concentration 5): 48.1017% | % inhibition apPOL 180' (DRC-1; 180'; concentration 10): 62.9235% | % inhibition apPOL 180' (DRC-1; 180'; concentration 20): 84.8942% | % inhibition apPOL 180' (DRC-1; 180'; concentration 40): 86.2556% | % inhibition apPOL 180' (DRC-1; 180'; concentration 80): 82.2791% | % inhibition Apol 40' (DRC-2, 40', concentration 10 (unit not given)): 63% | % inhibition Apol 40' (DRC-2, 40', concentration 20 (unit not given)): 71% | % inhibition Apol 40' (DRC-2, 40', concentration 80 (unit not given)): 54% | % inhibition ApPOL 90' (DRC-2, 90', concentration 10 (unit not given)): 63% | % inhibition ApPOL 90' (DRC-2, 90', concentration 20 (unit not given)): 71% | % inhibition ApPOL 90' (DRC-2, 90', concentration 40 (unit not given)): 71% | % inhibition apPOL 180' (DRC-2, 180', concentration 10 (unit not given)): 54% | % inhibition apPOL 180' (DRC-2, 180', concentration 20 (unit not given)): 63% | % inhibition apPOL 180' (DRC-2, 180', concentration 40 (unit not given)): 63% | % inhibition Apo pol 5' (DRC-2; 5'; concentration 2.5): 35% | % inhibition Apo pol 5' (DRC-2; 5'; concentration 5): 43% | % inhibition Apo pol 5' (DRC-2; 5'; concentration 10): 50% | % inhibition Apo pol 5' (DRC-2; 5'; concentration 20): 55% | % inhibition Apo pol 5' (DRC-2; 5'; concentration 40): 58% | % inhibition Apo pol 5' (DRC-2; 5'; concentration 80): 31% | % inhibition Apol 40' (DRC-2; 40'; concentration 2.5): 32% | % inhibition Apol 40' (DRC-2; 40'; concentration 5): 45% | % inhibition Apol 40' (DRC-2; 40'; concentration 10): 63% | % inhibition Apol 40' (DRC-2; 40'; concentration 20): 71% | % inhibition Apol 40' (DRC-2; 40'; concentration 40): 72% | % inhibition Apol 40' (DRC-2; 40'; concentration 80): 54% | % inhibition ApPOL 90' (DRC-2; 90'; concentration 2.5): 28% | % inhibition ApPOL 90' (DRC-2; 90'; concentration 5): 42% | % inhibition ApPOL 90' (DRC-2; 90'; concentration 10): 63% | % inhibition ApPOL 90' (DRC-2; 90'; concentration 20): 71% | % inhibition ApPOL 90' (DRC-2; 90'; concentration 40): 71% | % inhibition ApPOL 90' (DRC-2; 90'; concentration 80): 56% | % inhibition apPOL 180' (DRC-2; 180'; concentration 2.5): 18% | % inhibition apPOL 180' (DRC-2; 180'; concentration 5): 27% | % inhibition apPOL 180' (DRC-2; 180'; concentration 10): 54% | % inhibition apPOL 180' (DRC-2; 180'; concentration 20): 63% | % inhibition apPOL 180' (DRC-2; 180'; concentration 40): 63% | % inhibition apPOL 180' (DRC-2; 180'; concentration 80): 53% | DNA Pol (primary screen value of the 186 hits; unit not given; 90 min, 10 µM): 85 | DNA Pol (primary screen value, head "DNA Pol", unit not given; 90 min, 10 µM): 85

Cc1cc(C)c2c(c1)C1C=CCC1C(c1ccc(C(=O)O)cc1)N2 (centres unmarked) [Molecule 102]
IC50 [1]: 2.89 µM
